Laboratory results published in patent US10188733B2 (priority 2010, dated 2019).

Tested on: VSV-specific neutralizing antibodies
Type: in vivo, mice
Details: for antigen-specific antibody titers / increase in adaptive immune responses following immunization: mouse, in vivo; for VSV antigen-specific neutralizing antibody titers: free bisphosphonate 2 mg footpad days -3 and -1, live VSV Indiana 10^4 pfu, serum day 8, vs control mice (FIG. 6)

| Compound | antigen-specific antibody titers | increase in adaptive immune responses following immunization | VSV antigen-specific neutralizing antibody titers |
| --- | --- | --- | --- |
| dextran sulfate | did not increase | failed to induce an increase | – |
| CC(O)(P(=O)(O)O)P(=O)(O)O [etidronate] | – | – | increased |
| NCCCC(O)(P(=O)(O)O)P(=O)(O)O [alendronate] | – | – | increased |
| NCCC(O)(P(=O)(O)O)P(=O)(O)O [pamidronate] | – | – | increased |
| carrageenan | did not increase | failed to induce an increase | – |
